Assay results taken from ChEMBL document CHEMBL4507275, “Data for DCP probe BI-2545” (2021).
Activity calls are given as the source filed them.

What was measured:
[1] = biological target: Tyrosine-protein kinase Lck (Homo sapiens) (UniProt P06239); assay: LCK_CE Cerep selectivity data (BI); conditions: Compound concentration 10.0 uM
[2] = biological target: Adenosine receptor A2a (Homo sapiens) (UniProt P29274); assay: A2A/H Cerep selectivity data (BI); conditions: filed as antagonist, Compound concentration 10.0 uM
[3] = biological target: Sodium-dependent dopamine transporter (Homo sapiens) (UniProt Q01959); assay: DATRANS/HUM Cerep selectivity data (BI); conditions: Compound concentration 10.0 uM
[4] = biological target: Sigma non-opioid intracellular receptor 1 (Homo sapiens, UniProt Q99720); assay: GPCRScan assay: inhibition of Sigma 1; design: radioligand conc. used [nm] 4.0 – 5.0, parental cells HEKT
[5] = biological target: Glucocorticoid receptor (Homo sapiens) (UniProt P04150); assay: GCORTICOID/H Cerep selectivity data (BI); conditions: Compound concentration 10.0 uM
hERG (KCNH2) = hERG (KCNH2) (Homo sapiens, UniProt Q12809); assay: HERG_DOFETILIDE Cerep selectivity data (BI); design: mode of action inhibitor; conditions: probe [3H] Dofetilide, compound concentration 10 uM, read-out: % Ctrl
[6] = biological target: D(2) dopamine receptor (Homo sapiens) (UniProt P14416); conditions: Compound concentration 10.0 uM
[7] = biological target: cGMP-inhibited 3',5'-cyclic phosphodiesterase 3A (Homo sapiens) (UniProt Q14432); assay: PDE3A Cerep selectivity data (BI); conditions: Compound concentration 10.0 uM
[8] = biological target: Sodium-dependent serotonin transporter (Homo sapiens) (UniProt P31645); assay: SLC6A4/H Cerep selectivity data (BI); conditions: filed as antagonist, Compound concentration 10.0 uM
[9] = biological target: Vasopressin V1a receptor (Homo sapiens) (UniProt P37288); assay: V1A/HUM Cerep selectivity data (BI); conditions: Compound concentration 10.0 uM
[10] = biological target: SRSF protein kinase 2 (Homo sapiens) (UniProt P78362); conditions: Compound concentration 1000.0 nM
[11] = biological target: Beta-2 adrenergic receptor (Homo sapiens) (UniProt P07550); assay: BETA2/HUM Cerep selectivity data (BI); conditions: filed as antagonist, Compound concentration 10.0 uM
[12] = biological target: L-type voltage-gated calcium channel (dihydropyridine site), Cav1.2 alpha-1C (Rattus norvegicus, UniProt P22002); assay: CA+/DHPSI/R Cerep selectivity data (BI); design: mode of action inhibitor; conditions: rat brain, probe [3H](+)PN200-110, compound concentration 10 uM, read-out: % Ctrl
[13] = biological target: BMP-2-inducible protein kinase (Homo sapiens) (UniProt Q9NSY1); conditions: Compound concentration 1000.0 nM
[14] = biological target: Glutamate receptor ionotropic, NMDA 2A (Rattus norvegicus) (UniProt Q00959); assay: NMDA/R Cerep selectivity data (BI); conditions: Compound concentration 10.0 uM
[15] = biological target: Muscarinic acetylcholine receptor M1 (Homo sapiens) (UniProt P11229); conditions: Compound concentration 10.0 uM
[16] = biological target: Cholecystokinin receptor type A (Homo sapiens) (UniProt P32238); assay: CCKA/H Cerep selectivity data (BI); conditions: Compound concentration 10.0 uM
[17] = biological target: D(2) dopamine receptor (Homo sapiens) (UniProt P14416); assay: D2SH_AGON Cerep selectivity data (BI); conditions: filed as agonist, Compound concentration 10.0 uM
[18] = biological target: Cannabinoid receptor 1 (Homo sapiens) (UniProt P21554); assay: CB1/CENTR/H Cerep selectivity data (BI); conditions: Compound concentration 10.0 uM
[19] = biological target: Prostaglandin G/H synthase 2 (Homo sapiens) (UniProt P35354); assay: COX-2 Cerep selectivity data (BI); conditions: Compound concentration 10.0 uM
[20] = biological target: Delta-type opioid receptor (Homo sapiens) (UniProt P41143); assay: DELTA2/H Cerep selectivity data (BI); conditions: Compound concentration 10.0 uM
[21] = biological target: T1, 5-hydroxytryptamine receptor 1A (Homo sapiens) (UniProt P08908); assay: 5HT1A/H Cerep selectivity data (BI); conditions: Compound concentration 10.0 uM
T1 sequence (whole entry): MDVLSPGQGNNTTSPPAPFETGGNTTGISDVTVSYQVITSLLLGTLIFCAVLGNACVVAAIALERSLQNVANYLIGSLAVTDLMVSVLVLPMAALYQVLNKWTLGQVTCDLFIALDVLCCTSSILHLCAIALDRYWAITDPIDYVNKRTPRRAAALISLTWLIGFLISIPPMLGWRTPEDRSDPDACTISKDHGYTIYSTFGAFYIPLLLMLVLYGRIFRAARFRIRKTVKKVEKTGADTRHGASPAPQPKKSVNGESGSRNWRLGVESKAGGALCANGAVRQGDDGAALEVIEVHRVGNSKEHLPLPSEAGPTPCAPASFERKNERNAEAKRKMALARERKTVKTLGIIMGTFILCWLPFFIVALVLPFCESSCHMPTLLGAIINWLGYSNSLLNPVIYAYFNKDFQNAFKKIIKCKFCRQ

[22] = biological target: Muscarinic acetylcholine receptor M1 (Homo sapiens) (UniProt P11229); assay: M1/H Cerep selectivity data (BI); conditions: Compound concentration 10.0 uM
[23] = biological target: Androgen receptor (Homo sapiens) (UniProt P10275); assay: ANDROGEN/H Cerep selectivity data (BI); conditions: Compound concentration 10.0 uM
[24] = biological target: Potassium voltage-gated channel subfamily V member 1 (Rattus norvegicus) (UniProt P97557); assay: K+/VOLT/RA Cerep selectivity data (BI); conditions: Compound concentration 10.0 uM
[25] = biological target: Neuronal acetylcholine receptor; alpha4/beta2 (Homo sapiens) (UniProt P17787+P43681); assay: N_NEURO_A4B2 Cerep selectivity data (BI); format: protein-complex assay; conditions: filed as agonist, Compound concentration 10.0 uM
[26] = biological target: Gamma-aminobutyric acid receptor subunit alpha-1 (Rattus norvegicus) (UniProt P62813); assay: BZD/CENTR/R Cerep selectivity data (BI); conditions: Compound concentration 10.0 uM
[27] = biological target: 5-hydroxytryptamine receptor 2A (Homo sapiens, UniProt P28223); assay: 5HT2AH_AGON Cerep selectivity data (BI); conditions: filed as agonist, Compound concentration 10.0 uM
[28] = biological target: MAO-A (amine oxidase [flavin-containing] A) (Rattus norvegicus, UniProt P21396); assay: MAO-A_ANTAG Cerep selectivity data (BI); design: mode of action antagonist; scale not given: the % may be the effect or the level left; conditions: compound concentration 10 uM, read-out: % Ctrl
[29] = biological target: T2, 5-hydroxytryptamine receptor 3A (Homo sapiens) (UniProt P46098); assay: 5HT3/H Cerep selectivity data (BI); conditions: Compound concentration 10.0 uM
T2 sequence (whole entry): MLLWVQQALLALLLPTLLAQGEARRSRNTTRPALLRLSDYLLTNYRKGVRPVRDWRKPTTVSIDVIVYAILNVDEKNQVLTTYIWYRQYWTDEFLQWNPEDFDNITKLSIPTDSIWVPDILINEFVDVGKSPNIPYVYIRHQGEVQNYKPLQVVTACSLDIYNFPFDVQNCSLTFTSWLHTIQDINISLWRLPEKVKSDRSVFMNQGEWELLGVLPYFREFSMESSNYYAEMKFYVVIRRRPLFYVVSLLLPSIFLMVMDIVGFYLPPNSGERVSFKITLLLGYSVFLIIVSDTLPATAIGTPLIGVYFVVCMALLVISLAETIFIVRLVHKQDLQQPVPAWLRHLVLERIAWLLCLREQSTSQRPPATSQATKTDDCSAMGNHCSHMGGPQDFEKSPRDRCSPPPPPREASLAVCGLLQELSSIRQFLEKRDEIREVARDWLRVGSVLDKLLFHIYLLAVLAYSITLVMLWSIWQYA

[30] = biological target: Angiotensin-converting enzyme (Homo sapiens) (UniProt P12821); assay: ACE(HU_AMTCH400) Cerep selectivity data (BI); conditions: Compound concentration 10.0 uM
[31] = biological target: Prostaglandin G/H synthase 1 (Homo sapiens) (UniProt P23219); assay: COX-1 Cerep selectivity data (BI); conditions: Compound concentration 10.0 uM
Autotaxin = Autotaxin (Homo sapiens, UniProt Q13822); assay: Biochemical assay: measurement of LPA (human)

Sequence of SRSF protein kinase 2 (Homo sapiens) (P78362 whole entry, looked up): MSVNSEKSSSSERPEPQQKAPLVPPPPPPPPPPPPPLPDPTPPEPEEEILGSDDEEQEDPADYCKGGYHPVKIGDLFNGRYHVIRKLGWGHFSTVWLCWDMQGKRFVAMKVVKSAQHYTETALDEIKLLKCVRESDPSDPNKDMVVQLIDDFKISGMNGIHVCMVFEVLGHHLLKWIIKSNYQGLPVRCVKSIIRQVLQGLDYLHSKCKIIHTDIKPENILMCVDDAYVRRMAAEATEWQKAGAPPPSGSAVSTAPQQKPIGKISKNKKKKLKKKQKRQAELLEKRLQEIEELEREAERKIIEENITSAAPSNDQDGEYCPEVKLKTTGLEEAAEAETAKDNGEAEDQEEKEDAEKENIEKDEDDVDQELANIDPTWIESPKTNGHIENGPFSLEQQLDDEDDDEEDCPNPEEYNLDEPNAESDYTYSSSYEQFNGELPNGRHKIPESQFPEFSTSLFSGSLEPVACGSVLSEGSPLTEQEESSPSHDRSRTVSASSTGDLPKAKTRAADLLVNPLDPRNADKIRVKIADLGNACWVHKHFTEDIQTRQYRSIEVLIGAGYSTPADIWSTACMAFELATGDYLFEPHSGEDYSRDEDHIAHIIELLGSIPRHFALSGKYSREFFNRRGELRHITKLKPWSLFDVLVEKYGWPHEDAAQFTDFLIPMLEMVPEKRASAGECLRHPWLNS
Sequence of BMP-2-inducible protein kinase (Homo sapiens) (Q9NSY1 whole entry, looked up): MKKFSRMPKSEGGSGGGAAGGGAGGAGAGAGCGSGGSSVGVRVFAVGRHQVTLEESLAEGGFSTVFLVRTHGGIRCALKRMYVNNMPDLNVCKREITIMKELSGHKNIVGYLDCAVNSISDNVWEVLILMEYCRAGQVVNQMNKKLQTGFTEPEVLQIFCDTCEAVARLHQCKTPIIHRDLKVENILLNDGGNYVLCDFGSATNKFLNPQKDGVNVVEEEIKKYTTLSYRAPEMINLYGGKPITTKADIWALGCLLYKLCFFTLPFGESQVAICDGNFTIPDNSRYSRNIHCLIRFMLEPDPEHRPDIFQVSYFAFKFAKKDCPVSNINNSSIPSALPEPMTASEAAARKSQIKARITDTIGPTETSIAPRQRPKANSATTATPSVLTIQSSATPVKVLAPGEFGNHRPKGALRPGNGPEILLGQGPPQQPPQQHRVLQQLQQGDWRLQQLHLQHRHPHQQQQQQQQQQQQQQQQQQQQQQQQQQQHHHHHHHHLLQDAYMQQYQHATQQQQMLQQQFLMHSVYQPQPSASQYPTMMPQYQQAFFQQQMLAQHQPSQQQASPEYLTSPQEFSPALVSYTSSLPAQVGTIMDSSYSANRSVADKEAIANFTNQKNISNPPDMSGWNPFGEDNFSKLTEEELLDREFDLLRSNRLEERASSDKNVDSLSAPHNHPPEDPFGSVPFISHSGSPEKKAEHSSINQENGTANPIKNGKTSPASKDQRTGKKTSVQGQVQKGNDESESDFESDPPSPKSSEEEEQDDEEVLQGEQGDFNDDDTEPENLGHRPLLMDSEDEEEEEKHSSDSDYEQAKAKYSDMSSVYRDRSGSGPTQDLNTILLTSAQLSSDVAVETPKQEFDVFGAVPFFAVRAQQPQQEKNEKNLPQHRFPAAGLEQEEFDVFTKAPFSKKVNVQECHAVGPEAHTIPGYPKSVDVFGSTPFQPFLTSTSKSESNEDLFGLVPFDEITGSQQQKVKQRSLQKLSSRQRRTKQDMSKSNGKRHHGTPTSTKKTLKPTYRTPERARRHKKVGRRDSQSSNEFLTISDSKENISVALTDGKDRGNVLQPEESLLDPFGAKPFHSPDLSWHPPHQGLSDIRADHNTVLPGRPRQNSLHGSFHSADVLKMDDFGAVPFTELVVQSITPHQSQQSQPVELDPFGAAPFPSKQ
Sequence of Muscarinic acetylcholine receptor M1 (Homo sapiens) (P11229 whole entry): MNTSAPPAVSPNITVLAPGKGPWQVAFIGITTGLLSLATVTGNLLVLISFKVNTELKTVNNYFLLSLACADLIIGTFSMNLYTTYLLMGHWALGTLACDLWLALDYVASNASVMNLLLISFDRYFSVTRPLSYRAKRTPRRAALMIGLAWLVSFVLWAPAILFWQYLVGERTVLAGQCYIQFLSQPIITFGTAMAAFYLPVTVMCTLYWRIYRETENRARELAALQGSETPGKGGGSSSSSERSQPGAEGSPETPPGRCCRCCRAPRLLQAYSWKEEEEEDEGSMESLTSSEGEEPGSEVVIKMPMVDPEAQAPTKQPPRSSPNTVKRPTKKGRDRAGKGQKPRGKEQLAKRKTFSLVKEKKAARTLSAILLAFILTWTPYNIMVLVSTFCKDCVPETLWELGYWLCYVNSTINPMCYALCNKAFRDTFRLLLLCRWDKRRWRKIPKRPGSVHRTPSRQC
Sequence of D(2) dopamine receptor (Homo sapiens) (P14416 whole entry): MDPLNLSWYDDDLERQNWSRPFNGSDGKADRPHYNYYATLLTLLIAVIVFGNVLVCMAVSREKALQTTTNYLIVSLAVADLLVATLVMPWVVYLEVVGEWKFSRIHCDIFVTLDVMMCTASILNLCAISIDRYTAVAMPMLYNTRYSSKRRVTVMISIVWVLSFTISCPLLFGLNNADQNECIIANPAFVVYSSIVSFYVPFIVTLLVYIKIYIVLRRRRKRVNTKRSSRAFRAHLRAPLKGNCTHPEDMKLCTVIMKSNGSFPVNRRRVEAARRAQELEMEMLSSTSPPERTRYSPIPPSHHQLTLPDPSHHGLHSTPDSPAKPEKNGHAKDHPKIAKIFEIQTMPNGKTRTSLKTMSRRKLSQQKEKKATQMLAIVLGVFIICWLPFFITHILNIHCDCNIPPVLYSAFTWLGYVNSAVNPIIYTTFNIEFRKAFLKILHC
Sequence of hERG (KCNH2) (Q12809 whole entry): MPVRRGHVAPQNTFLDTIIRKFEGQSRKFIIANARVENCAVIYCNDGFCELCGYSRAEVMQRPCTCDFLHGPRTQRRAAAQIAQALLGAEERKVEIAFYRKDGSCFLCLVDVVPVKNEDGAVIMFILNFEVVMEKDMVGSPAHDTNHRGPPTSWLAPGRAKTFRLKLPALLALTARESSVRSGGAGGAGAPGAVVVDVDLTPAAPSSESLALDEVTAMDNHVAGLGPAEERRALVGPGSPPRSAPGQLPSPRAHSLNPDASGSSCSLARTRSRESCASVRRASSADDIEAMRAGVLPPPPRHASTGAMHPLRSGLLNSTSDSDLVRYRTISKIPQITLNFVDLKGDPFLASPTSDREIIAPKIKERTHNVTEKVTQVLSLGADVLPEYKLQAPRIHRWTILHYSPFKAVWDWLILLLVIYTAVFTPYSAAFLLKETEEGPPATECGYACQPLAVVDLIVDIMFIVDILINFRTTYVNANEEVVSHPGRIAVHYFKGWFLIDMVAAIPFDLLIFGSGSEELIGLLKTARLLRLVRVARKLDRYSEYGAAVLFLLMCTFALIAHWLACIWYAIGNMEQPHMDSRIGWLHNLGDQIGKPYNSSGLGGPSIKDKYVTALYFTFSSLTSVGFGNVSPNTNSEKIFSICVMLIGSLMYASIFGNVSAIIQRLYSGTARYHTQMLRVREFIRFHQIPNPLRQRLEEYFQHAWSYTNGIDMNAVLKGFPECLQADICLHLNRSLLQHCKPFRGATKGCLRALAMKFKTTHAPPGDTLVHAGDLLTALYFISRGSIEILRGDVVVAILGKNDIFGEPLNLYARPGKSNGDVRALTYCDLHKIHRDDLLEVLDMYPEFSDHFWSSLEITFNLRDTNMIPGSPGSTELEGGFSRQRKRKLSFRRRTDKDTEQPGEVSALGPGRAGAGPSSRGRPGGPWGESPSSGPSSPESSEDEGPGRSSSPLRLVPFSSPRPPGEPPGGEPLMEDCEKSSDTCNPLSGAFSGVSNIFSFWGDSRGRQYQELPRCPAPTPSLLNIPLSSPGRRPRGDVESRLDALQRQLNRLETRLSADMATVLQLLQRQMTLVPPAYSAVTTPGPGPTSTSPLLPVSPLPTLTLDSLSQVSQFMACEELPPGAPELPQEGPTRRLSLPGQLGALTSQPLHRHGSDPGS
Sequence of Glucocorticoid receptor (Homo sapiens) (P04150 whole entry): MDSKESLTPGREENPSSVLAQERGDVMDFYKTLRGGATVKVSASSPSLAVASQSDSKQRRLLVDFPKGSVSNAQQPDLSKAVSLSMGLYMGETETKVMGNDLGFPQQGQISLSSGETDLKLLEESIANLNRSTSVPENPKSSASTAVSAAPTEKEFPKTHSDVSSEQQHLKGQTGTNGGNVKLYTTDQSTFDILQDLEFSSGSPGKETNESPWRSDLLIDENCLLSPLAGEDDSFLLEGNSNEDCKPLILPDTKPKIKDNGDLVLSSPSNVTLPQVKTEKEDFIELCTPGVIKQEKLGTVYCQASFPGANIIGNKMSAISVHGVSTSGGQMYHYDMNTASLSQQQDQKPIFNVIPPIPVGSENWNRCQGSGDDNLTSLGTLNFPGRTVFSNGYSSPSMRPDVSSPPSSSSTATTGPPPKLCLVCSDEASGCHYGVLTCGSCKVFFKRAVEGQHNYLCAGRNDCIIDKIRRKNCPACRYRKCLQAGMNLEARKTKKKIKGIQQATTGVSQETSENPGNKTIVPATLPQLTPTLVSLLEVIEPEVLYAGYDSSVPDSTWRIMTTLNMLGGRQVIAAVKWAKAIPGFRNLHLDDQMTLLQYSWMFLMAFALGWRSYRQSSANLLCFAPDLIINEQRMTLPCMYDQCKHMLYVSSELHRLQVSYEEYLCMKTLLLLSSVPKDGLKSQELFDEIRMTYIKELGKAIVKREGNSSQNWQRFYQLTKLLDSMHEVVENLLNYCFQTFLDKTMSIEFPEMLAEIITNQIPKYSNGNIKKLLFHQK
Sequence of Delta-type opioid receptor (Homo sapiens) (P41143 whole entry): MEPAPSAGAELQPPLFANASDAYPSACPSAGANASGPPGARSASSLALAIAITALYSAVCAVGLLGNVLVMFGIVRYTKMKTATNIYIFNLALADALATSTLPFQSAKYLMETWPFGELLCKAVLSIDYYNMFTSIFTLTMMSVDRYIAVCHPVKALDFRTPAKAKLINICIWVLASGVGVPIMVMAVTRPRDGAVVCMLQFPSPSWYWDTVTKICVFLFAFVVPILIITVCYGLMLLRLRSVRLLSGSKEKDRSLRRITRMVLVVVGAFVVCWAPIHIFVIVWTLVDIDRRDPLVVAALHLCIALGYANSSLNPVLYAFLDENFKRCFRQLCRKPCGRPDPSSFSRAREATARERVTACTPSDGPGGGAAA

O=C(NC[C@@H]1[C@H]2CN(C(=O)OCc3cc(C(F)(F)F)cc(C(F)(F)F)c3)C[C@@H]12)c1ccc2[nH]nnc2c1 [BI 2545]
inactive: residual activity [1] 96% | residual activity [2] 107% | residual activity [3] 57% | residual activity [5] 99% | inhibition [6] 7.71% | residual activity [7] 76% | residual activity [8] 66% | residual activity [9] 80% | residual activity [10] 100% | residual activity [11] 96% | residual activity [13] 85% | residual activity [14] 100% | inhibition [15] -2.87% | residual activity [16] 51% | residual activity [17] 97% | residual activity [18] 95% | residual activity [19] 81% | residual activity [20] 82% | residual activity [21] 83% | residual activity [22] 97% | residual activity [23] 103% | residual activity [24] 103% | residual activity [25] 111% | residual activity [26] 136% | residual activity [29] 94% | residual activity [30] 109% | residual activity [31] 82%
71% (not active): activity at 10 µM (hERG (KCNH2))
3.55 µM: Ki [4]
70% (not active): activity at 10 µM [28]
active: activity at 10 µM [12] 20% | residual activity [27] 45%

Cc1nccc(COC(=O)N2C[C@@H]3[C@@H](CNC(=O)c4ccc5[nH]nnc5c4)[C@@H]3C2)n1 [BI 3017]
8.9 µM (not active): IC50 (Autotaxin)
inactive: residual activity [10] 77% | residual activity [13] 100%
